Test results reported in PubChem BioAssay AID179 (DTP/NCI, 2004).
Where “and” joins values, the source holds several entries; their conditions need not be identical. Equal values may be shown once. Calls of active or inactive are those of the source.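 The calls were made as follows: active = compounds giving half or more protection of infected cells from virus-caused growth loss, again on retest; inactive = the rest.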

System: CEM cells HIV-1 protection, formazan growth assay
Test: NCI AIDS Antiviral Assay
Conditions: for IC50: measured here: growth of uninfected CEM cells
Outline: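 Human CEM cells, uninfected and HIV-1-infected, exposed to five drug concentrations; growth measured by soluble formazan assay and scored as percent protection from infection, with protecting compounds retested.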

| SMILES | EC50 | IC50 | outcome |
| --- | --- | --- | --- |
| O=C(Nc1ccc(Cl)cc1)NS(=O)(=O)c1coc2cc(F)ccc2c1=O | > 200 µM | 63.1 µM | – |
| CC1=Cc2cc3[n-]c(cc4nc(cc5[n-]c(cc1n2)c(C)c5CCC(=O)O)C(CCC(=O)O)=C4C)cc3C.[Cu+2] | > 8.71 µM | 7.59 µM | – |
| CCC1COS(=O)(=O)CS(=O)(=O)O1 (stereo not given) | > 1070 µM | 1020 µM | – |
| CCn1cnc2[nH]cc(C#N)c2c1=O | > 200 µM | > 200 µM | – |
| CC(C)(CN1CCCCC1)C(=O)/C=C/c1ccc(Cl)cc1 | > 36.3 µM | 7.94 µM | – |
| CCCCC1C=Cn2c(=O)oc3c(OC(C)C)c(OC(C)C)c(O)c1c32 (stereo not given) | > 200 µM | 13.2 µM | – |
| CC1CC2CC(=O)CC3(C1)C2CCCN3CCCO (stereo not given) | – | – | inactive |
| O=[N+]([O-])c1cccnc1SSc1ncccc1[N+](=O)[O-] | > 200 µM | 97.7 µM | – |
| COc1ccc(N2C(=O)C3c4[nH]c5ccc(OCc6ccccc6)cc5c4C4CCC(C(C)(C)C)CC4C3C2=O)cc1 (stereo not given) | > 200 µM | 16.6 µM | – |
| Cn1cnc([N+](=O)[O-])c1SC1=NCCS1 | > 1020 µM | 7.08 µM | – |
| COc1ccc2c(c1O)C13CCN(C)C(C2)C1CCC1(C3)OCCO1 (stereo not given) | > 380 µM | 204 µM | – |
| CCOC(=O)/C(=C/c1ccco1)C(=O)c1ccccc1 | > 132 µM | 77.6 µM | – |
| Cc1cccc(C(C)C)c1NC(=O)/C(Cc1c([N+](=O)[O-])cccc1[N+](=O)[O-])=N/NC(=O)CC#N | > 145 µM | > 145 µM | – |
| CC1(C)OCC([C@H]2CC23SCCCS3)O1 (stereo not given in full) | > 200 µM | > 200 µM | – |
| CCCC1(CC(=O)O)OCCc2c1[nH]c1ccccc21 (stereo not given) | > 912 µM | 457 µM | – |
| C/C(=N\NC(=S)N1CCCCCC1)c1ccccn1 | > 49 µM | 0.0372 µM | – |
| O=C(COc1ccc(Cl)cc1)N1N=C(c2ccc([N+](=O)[O-])o2)CC1(O)c1ccccc1 (stereo not given) | > 16.2 µM | 2.88 µM | – |
| COC(=O)C1CC2C=CC1N(C(=O)OCc1ccccc1)C2 (stereo not given) | > 200 µM | 170 µM | – |
| COc1ccc(/C=C(\C#N)c2ccc(Cl)cc2)cc1OC | > 200 µM | 174 µM | – |
| N=C(N)C1CN(CCc2c[nH]c3ccccc23)C(=O)NC1=O (stereo not given) | > 200 µM | > 200 µM | – |
| N=c1c2c(ncn1N)CCN(Cc1ccccc1)C2 | > 200 µM | 30.9 µM | – |
| CN(C)/N=C(/c1nc2ccc(Cl)cc2[nH]c1=O)C(O)c1ccc(C(O)/C(=N\N(C)C)c2nc3ccc(Cl)cc3[nH]c2=O)cc1 (stereo not given) | > 389 µM | 24 µM | – |
| Cc1ccc(SC2C(C)(C)N(C(C)C)P2(=O)N(C(C)C)C(C)C)cc1 (stereo not given) | > 9.77 µM | > 9.77 µM | – |

| SMILES | EC50 | IC50 | outcome |
| --- | --- | --- | --- |
| CC1(C)OC(=O)C(C)(C)OC1=O | > 200 µM | > 200 µM | – |
| CCC(=O)Nc1nc2c(ncn2C2OC(COC(=O)CC)C(OC(=O)CC)C2OC(=O)CC)c(=O)[nH]1 (stereo not given) | > 355 µM | 309 µM | – |
| Cc1cscc(C)c1=S | > 195 µM | > 195 µM | – |
| O=C(O)c1ccc2c(c1)CC1(C2)Cc2ccccc2C1=O (stereo not given) | > 200 µM | > 200 µM | – |
| Cc1ccc(C)c(C(=O)CC2OC(O)C(Cl)C2Cl)c1 (stereo not given) | > 117 µM | 64.6 µM | – |
| NC(=O)C(=Cn1c(=S)[nH]c2ccc([N+](=O)[O-])cc21)C(N)=O | > 200 µM | > 200 µM | – |
| CC(C)CC(C[C@@H](O)[C@H](Cc1ccccc1)NC(=O)O[C@H]1CCOC1)S(=O)(=O)c1ccccc1 (stereo not given in full) | 38.9 µM | 112 µM | – |
| Cc1cccc(NC(=O)C(=O)C(C2OC(=O)c3ccccc32)[N+](=O)[O-])c1C (stereo not given) | – | – | inactive |
| COc1ccc(-n2c(-c3ccccc3)cc(-c3cccs3)c2-c2cccs2)cc1 | > 200 µM | > 200 µM | – |
| C[N+](C)(Cc1ccco1)c1ccccc1 | > 3.16 µM | > 3.16 µM | – |
| CCOC(=O)c1ccc(N(CC/C(CN)=N/NC(N)=O)C(C)=O)cc1 | > 646 µM | 363 µM | – |
| C=CCNC(=O)NC1=CSC2=NC(=O)C3(NN12)c1ccccc1-c1ccccc13 | > 200 µM | 58.9 µM | – |
| CCOC(=O)C#CCC/C=C(\C)COC1CCCCO1 (stereo not given) | – | – | inactive |
| O=C(CC(=O)c1ccccc1)CC(O)(c1ccccc1)c1ccccc1 | > 11 µM | > 11 µM | – |
| CC(C)(C)C(=O)OCC(COC(=O)C(C)(C)C)[N+](=O)[O-] | – | – | inactive |
| CN1C(=O)C(C)(C)NS1(=O)=O | – | – | inactive |
| Nc1nc(N)c(N=O)c(Nc2ccccc2)n1 | > 200 µM | 33.9 µM | – |
| CC(C)(C)C1CC[C@H]2c3c([nH]c4ccc(Br)cc34)[C@H]3C(=O)N(c4ccccc4)C(=O)[C@H]3[C@H]2C1 (stereo not given in full) | > 7.24 µM | > 7.24 µM | – |
| CC1CCC/C1=C(/I)C(=O)c1ccccc1 (stereo not given) | > 200 µM | 58.9 µM | – |
| Cc1ccc(N2C(=O)/C(=c3\s/c(=C(/N)O)c(=N)n3-c3ccccc3)SC2=S)cc1 | > 4.57 µM | > 4.57 µM | – |
| COC1=CC(=O)c2nc(C)ccc2C1=O | – | – | inactive |
| Brc1c(C#CCC2CCCCC2)ccc(C#CCC2CCCCC2)c1Br | > 100 µM | > 100 µM | – |
| COC(=O)C1=C(C)N(NC(=O)c2cccc(Cl)c2)C(C)(O)C12CCOC2=O (stereo not given) | > 631 µM | 275 µM | – |

| SMILES | EC50 | IC50 | outcome |
| --- | --- | --- | --- |
| COC(=O)C1(O)C(c2ccccc2)=NC2(C)CCCC21 (stereo not given) | > 200 µM | > 200 µM | – |
| Cc1ccc(C(=O)Nc2ccc(CP(=O)(O)O)cc2)cc1NC(=O)c1cccc(N)c1 | > 200 µM | > 200 µM | – |
| O=C(C1OC1c1ccc(O)cc1)C12CC3CC(CC(C3)C1)C2 (stereo not given) | > 200 µM | 52.5 µM | – |
| COc1ccc(C2SCC(=O)N2NC(=O)c2ccc(NC(C)=O)cc2)c(OC)c1 (stereo not given) | > 63.1 µM | > 63.1 µM | – |
| N#CC1CC2(C(=O)C1=O)c1ccccc1-c1ccccc12 (stereo not given) | – | – | inactive |
| O=S1(=O)CC2(N3CCCCC3)CCCCC21 (stereo not given) | > 891 µM | 219 µM | – |
| CC(C)SC1CC2C(CC1(C)O)C2(C)C (stereo not given) | > 200 µM | > 200 µM and 91.2 µM | – |
| COc1cc([C@@H]2c3cc4c(c(O)c3C[C@H]3COC(=O)[C@@H]32)OCO4)cc(OC)c1O | > 3.24 µM | 0.00174 µM | – |
| Nc1nnc(Cc2ccccc2[N+](=O)[O-])c(=O)[nH]1 | > 29.5 µM | > 29.5 µM | – |
| ClCCCN1CCN(CCCl)CC1 | > 832 µM | 21.4 µM | – |
| COc1cccc(C2c3cc4c(cc3OC(N3CCOCC3)C2C)OCO4)c1OC (stereo not given) | > 200 µM | 1.7 µM | – |
| Cc1c(COC(=O)NC(C)C)c(COC(=O)NC(C)C)c2n1CS(=O)C2 (stereo not given) | > 200 µM | 166 µM | – |
| CN(CC(O)C(O)C(O)C(O)CO)CN1C(=O)C(=O)c2ccccc21 (stereo not given) | > 200 µM | 34.7 µM | – |
| Cc1ccc(S(=O)(=O)N/N=C\C2c3ccccc3-c3ccccc32)cc1 | > 200 µM | 2.19 µM | – |
| Nc1nc(=O)n(C2OC(CO)CC2F)cc1Cl (stereo not given) | > 191 µM | > 191 µM | – |
| CC(=O)OC1CC2C(C)(C)C(=O)C=C[C@]2(C)C2CCC3(C)C(=CCC3[C@H](CO)C[C@H](O)C(=O)C(C)(C)O)[C@]12C (stereo not given in full) | > 47.9 µM | 18.6 µM | – |
| CCOC(=O)CC1(C)SCCN1C(=O)OCC (stereo not given) | > 200 µM | > 200 µM | – |
| SC1N=C(c2ccco2)N2C(S)N=C(c3ccccc3)N12 (stereo not given) | > 200 µM | 182 µM | – |
| CCCCOC(=O)OC1CCC2(C)CC3CCC2(OO3)C1(C)C (stereo not given) | > 200 µM | 0.977 µM | – |
| CC1(C)OCC(C2OC(=O)C(OCc3ccccc3)=C2OCc2ccccc2)O1 (stereo not given) | > 200 µM | > 200 µM | – |
| Nc1nc(N)c2c(-c3ccccc3)ccnc2n1 | > 195 µM | 162 µM | – |
| CNc1ccccc1S(=O)(=O)c1ccccc1Br | > 200 µM | 18.2 µM | – |
| CC(=O)OCc1cccc(O)c1C(=O)CCC=C(C)C | > 200 µM | 148 µM | – |

| SMILES | EC50 | IC50 | outcome |
| --- | --- | --- | --- |
| O=C1c2c(O)cc(O)cc2OC(c2ccc(O)c(O)c2)C1O (stereo not given) | > 200 µM | > 200 µM | – |
| CC(=O)c1cc2ccccc2n(O)c1=N | > 200 µM | > 200 µM | – |
| CC(C)(C)C(=O)Nc1ccccc1C(=O)C12CCC3(CCOCc4ccccc4)C=CCN(C(=O)O1)C32 (stereo not given) | 15.5 µM | 42.7 µM | – |
| CC1(CO)COC(C)(C)OC1 | > 1550 µM | 1410 µM | – |
| CC(=N/N=C/c1ccccn1)/C(C)=N/N=C(C)/C(C)=N/N=C(C)/C(C)=N/N=C(C)/C(C)=N\N=C\c1ccccn1 | – | – | inactive |
| Cc1ccc(C)n1-n1c(Cc2ccccc2)n[nH]c1=O | > 200 µM | 83.2 µM | – |
| O=C(O)c1c(CC(Cc2ccc3c(c2)CCC3)C(=O)O)ccc2c1CCC2 (stereo not given) | > 200 µM | 145 µM | – |
| COc1ccc2c(c1)OCCN(C)OC2c1cccc(Cl)c1 (stereo not given) | > 200 µM | 87.1 µM | – |
| Nc1c(O)c(S(=O)(=O)O)c(O)c2c1C(=O)c1ccccc1C2=O | 200 µM | 234 µM | – |
| O=C(/C=C/c1ccc(O)c(O)c1)OCCc1ccc2ccccc2c1 | > 200 µM | 4.68 µM | – |
| Cc1cc(C(C)C)cc(O)c(=O)c1 | – | – | inactive |
| COC(C)(C)[C@@H]1CCCN1C1=C(C)C(=O)OC1 | > 200 µM | > 200 µM | – |
| c1cnc2c(c1)n[n+]1[n-]c3ccccc3n21 | > 12.3 µM | > 12.3 µM | – |
| CCOC(=O)CN1CCSC1=NC#N | – | – | inactive |
| CC(=O)OC1CSc2ccccc2N(C(C)=O)C1 (stereo not given) | > 355 µM | > 355 µM | – |
| C[C@]12CCCC(=O)C1(O)C[C@H](C(=O)O)CC2 (stereo not given in full) | – | – | inactive |
| CCCCCCC=C(c1cc(Cl)c(OC)c(C(=O)OC)c1)c1cc(Cl)c(OC)c(C(=O)OC)c1 | > 5.37 µM | > 5.37 µM | – |
| S=C(S)N1CCNCC1 | – | – | inactive |
| NCCCCC(=O)NC(CCCCNC(=O)OCc1ccccc1)C(=O)NCCCCC(=O)NC(CCCCNC(=O)OCc1ccccc1)C(=O)NCCCCC(=O)NC(CCCCNC(=O)OCc1ccccc1)C(=O)NCCCCC(=O)NC(CCCCNC(=O)OCc1ccccc1)C(=O)NCCCCC(=O)NC(CCCCNC(=O)OCc1ccccc1)C(=O)O (stereo not given) | > 14.1 µM | 13.8 µM | – |
| c1cc2c3c(c1)[I+]c1cccc(c1-3)[I+]2 | > 100 µM | 0.12 µM | – |
| O=C(NC(=S)Nc1ccccn1)c1ccccc1 | > 200 µM | 135 µM | – |
| Cn1c(C(=O)/C=C/c2ccc([N+](=O)[O-])cc2)nc2ccccc21 | > 200 µM | 33.1 µM | – |
